Patent publication US20250066344A1 (BRISTOL-MYERS SQUIBB COMPANY, priority 2021, published 2025)

Target: T1, human RXFP1 (Homo sapiens, UniProt Q9HBX9)
T1 construct: expressed in transfected cells
T1 sequence (Q9HBX9 1-757): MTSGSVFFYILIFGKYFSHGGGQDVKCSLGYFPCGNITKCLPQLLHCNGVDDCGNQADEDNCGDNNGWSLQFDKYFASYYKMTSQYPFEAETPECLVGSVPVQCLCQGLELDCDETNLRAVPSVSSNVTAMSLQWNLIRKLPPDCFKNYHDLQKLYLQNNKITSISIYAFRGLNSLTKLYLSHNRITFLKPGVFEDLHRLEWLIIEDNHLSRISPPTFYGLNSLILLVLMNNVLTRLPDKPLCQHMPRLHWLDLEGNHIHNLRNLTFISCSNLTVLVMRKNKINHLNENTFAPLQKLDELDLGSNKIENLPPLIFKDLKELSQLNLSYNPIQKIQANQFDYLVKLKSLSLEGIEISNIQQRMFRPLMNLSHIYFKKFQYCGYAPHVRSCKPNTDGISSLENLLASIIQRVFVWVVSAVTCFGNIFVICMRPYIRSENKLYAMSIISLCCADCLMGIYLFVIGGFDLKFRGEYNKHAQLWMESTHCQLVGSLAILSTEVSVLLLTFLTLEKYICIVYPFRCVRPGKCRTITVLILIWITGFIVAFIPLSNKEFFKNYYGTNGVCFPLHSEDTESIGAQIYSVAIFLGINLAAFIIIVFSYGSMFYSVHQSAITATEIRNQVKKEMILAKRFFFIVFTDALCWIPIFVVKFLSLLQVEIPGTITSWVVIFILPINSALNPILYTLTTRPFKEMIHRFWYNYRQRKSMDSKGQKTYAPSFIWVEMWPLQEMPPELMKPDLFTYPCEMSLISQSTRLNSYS
Test: RXFP1 cyclic adenosine monophosphate (cAMP) assay, hRXFP1 HEK293
Type: cell-based
Conditions: HEK293 cells stably expressing human RXFP1; 30 min at room temperature; HTRF cAMP
In short: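 HEK293 cells stably expressing human RXFP1 were exposed to compounds (0.010 nM–50 μM, 2% DMSO) for 30 min at room temperature in HBSS/HEPES buffer with 0.5 mM IBMX. Intracellular cAMP was measured by HTRF against a cAMP standard curve; EC50 from 4-parameter logistic fit.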

COc1ccc(C2=NOC3C(O)CC(O)C23)cc1C(=O)Nc1cc2nc(C)sc2cc1C(=O)Nc1ccc(F)c(C(F)(F)F)c1 (stereo not drawn) [Example 7, 5-(5-(4,6-dihydroxy-3a,5,6,6a-tetra-hydro-4H-cyclopenta[d]isoxazol-3-yl)-2-methoxy-benzamido)-N-(4-fluoro-3-(trifluorometh-yl)phenyl)-2-methylbenzo [d]thiazole-6-carboxamide]
EC50: 31 nM

COc1ccc(C2CCCN(C3COC3)CC2)cc1C(=O)Nc1cc2c(cc1C(=O)Nc1ccc(F)c(C(F)(F)F)c1)OC(F)(F)O2 (stereo not drawn) [Example 95, 2,2-difluoro-N-(4-fluoro-3-(trifluoromethyl)phenyl)-6-(2-methoxy-5-(1-(oxetan-3-yl)azepan-4-yl)benzamido)benzo[d] [1,3]dioxole-5-carboxamide]
EC50: 862 nM

COc1ccc(CN2CC3(C2)CS(=O)(=O)C3)cc1C(=O)Nc1cc2c(cc1C(=O)Nc1ccc(F)c(C(F)(F)F)c1)OC(F)(F)O2 [Example 88, 6-(5-((2,2-dioxido-2-thia-6-azaspiro[3.3]heptan-6-yl)methyl)-2-methoxybenzamido)-2,2-difluoro-N-(4-fluoro-3-(trifluoromethyl)phenyl) benzo[d][1,3]dioxole-5-carboxamide]
EC50: 274 nM

COc1ccc(C2=NOC3CC(CO)CC23)cc1C(=O)Nc1cc2nc(C)sc2cc1C(=O)NC1CCCC1 (stereo not drawn) [Example 19, N-cyclopent-yl-5-(5-(5-(hydroxymeth-yl)-3a,5,6,6a-tetrahydro-4H-cyclopenta[d]isoxazol-3-yl)-2-methoxy-benzamido)-2-methylbenzo [d]thiazole-6-carboxamide]
EC50: 1000 nM

COc1ccc(C2=NOC3CS(=O)(=O)CC23)cc1C(=O)Nc1cc2nc(C)sc2cc1C(=O)Nc1ccc(F)c(C(F)(F)F)c1 (stereo not drawn) [Example 6, 5-(5-(5,5-diox-ido-3a,4,6,6a-tetrahydro-thieno[3,4-d]isoxazol-3-yl)-2-methoxy-benzamido)-N-(4-fluoro-3-(trifluorometh-yl)phenyl)-2-methylbenzo [d]thiazole-6-carboxamide]
EC50: 28 nM

COc1ccc(-c2cncc(S(=O)(=O)NC(C)(C)C)c2)cc1C(=O)Nc1cc2c(cc1C(=O)Nc1ccc(F)c(C(F)(F)F)c1)OC(F)(F)O2 [Example 70, 6-(5-(5-(N-(tert-butyl)sulfamoyl)pyridin-3-yl)-2-methoxybenzamido)-2,2-difluoro-N-(4-fluoro-3-(trifluoromethyl)phenyl) benzo[d][1,3]dioxole-5-carboxamide]
EC50: 132 nM

COc1ccc(C2=NOC3(CCNC3)C2)cc1C(=O)Nc1cc2c(cc1C(=O)Nc1ccc(F)c(C(F)(F)F)c1)OC(F)(F)O2 (stereo not drawn) [Example 66, 2,2-difluoro-N-(4-fluoro-3-(trifluoromethyl)phenyl)-6-(2-methoxy-5-(1-oxa-2,7-diazaspiro[4.4]non-2-en-3-yl)benzamido)benzo[d] [1,3]dioxole-5-carboxamide]
EC50: 338 nM

COc1ccc(C(=O)NCC2(S(C)(=O)=O)CC2)cc1C(=O)Nc1cc2c(cc1C(=O)Nc1ccc(F)c(C(F)(F)F)c1)OC(F)(F)O2 [Example 35, N3-(2,2-difluoro-6-((4-fluoro-3-(trifluoromethyl)phenyl)carbamoyl)benzo[d][1,3]dioxol-5-yl)-4-methoxy-N1-((1-(methylsulfonyl)cyclopropyl)methyl)isophthalamide]
EC50: 6 nM

COc1ccc(-c2cc(C(=O)Nc3cc[nH]n3)ccc2F)cc1C(=O)Nc1cc2c(cc1C(=O)Nc1ccc(F)c(C(F)(F)F)c1)OC(F)(F)O2 [Example 48]
EC50: 196 nM

CC(C)(C)NS(=O)(=O)c1ccc(F)c(-c2cc3c(c(C(=O)Nc4cc5c(cc4C(=O)Nc4ccc(F)c(C(F)(F)F)c4)OC(F)(F)O5)c2)OC(C)(C)C3)c1 [Example 101, 6-(5-(5-(N-(tert-butyl)sulfamoyl)-2-fluorophenyl)-2,2-dimethyl-2,3-dihydrobenzofuran-7-carboxamido)-2,2-difluoro-N-(4-fluoro-3-(trifluoromethyl)phenyl) benzo[d][1,3]dioxole-5-carboxamide]
EC50: 9.8 nM

COc1ccc(C2=NOC3CN(C(=O)CO)CC23)cc1C(=O)Nc1cc2c(cc1C(=O)Nc1ccc(F)c(C(F)(F)F)c1)OC(F)(F)O2 (stereo not drawn) [Example 44, 2,2-difluoro-N-(4-fluoro-3-(trifluoromethyl)phenyl)-6-(5-(5-(2-hydroxyacetyl)-3a,5,6,6a-tetrahydro-4H-pyrrolo[3,4-d]isoxazol-3-yl)-2-methoxybenzamido)benzo[d][1,3]dioxole-5-carboxamide]
EC50: 16 nM

COc1ccc(C(=O)N2CCC3(CC2)COC3)cc1C(=O)Nc1cc2c(cc1C(=O)Nc1ccc(F)c(C(F)(F)F)c1)OC(F)(F)O2 [Example 42, 2,2-difluoro-N-(4-fluoro-3-(trifluoromethyl)phenyl)-6-(2-methoxy-5-(2-oxa-7-azaspiro[3.5]nonane-7-carbonyl)benzamido) benzo[d][1,3]dioxole-5-carboxamide]
EC50: 1200 nM

COc1ccc(C2=NOC3CC(NC(=O)CO)CC23)cc1C(=O)Nc1cc2c(cc1C(=O)Nc1ccc(F)c(C(F)(F)F)c1)OC(F)(F)O2 (stereo not drawn) [Example 51, 2,2-difluoro-N-(4-fluoro-3-(trifluoromethyl)phenyl)-6-(5-(5-(2-hydroxyacetamido)-3a,5,6,6a-tetrahydro-4H-cyclopenta[d]isoxazol-3-yl)-2-methoxybenzamido)benzo[d][1,3]dioxole-5-carboxamide]
EC50: 21 nM

COc1ccc(C2=NOC3CC(O)CC23)cc1C(=O)Nc1cc2nc(C)sc2cc1C(=O)Nc1ccc(F)c(C(F)(F)F)c1 (single isomer, unassigned) [Example 27, N-(4-fluoro-3-(trifluorometh-yl)phenyl)-5-(5-(5-hydroxy-3a,5,6,6a-tetra-hydro-4H-cyclopenta[d]isoxazol-3-yl)-2-methoxy-benzamido)-2-methylbenzo [d]thiazole-6-carboxamide]
EC50: 2200 nM

COc1ccc(C2=NOC3COCC23)cc1C(=O)Nc1cc2nc(C)sc2cc1C(=O)NC1CCCC1 (stereo not drawn) [Example 29, N-cyclopentyl-5-(2-methoxy-5-(3a,4,6,6a-tetrahydrofuro [3,4-d]isox-azol-3-yl)-benzamido)-2-methylbenzo [d]thiazole-6-carboxamide]
EC50: 2700 nM

COc1ccc(C2=NOC3CNCC23)cc1C(=O)Nc1cc2c(cc1C(=O)Nc1ccc(F)c(C(F)(F)F)c1)OC(F)(F)O2 (single isomer, unassigned) [Example 43, 2,2-difluoro-N-(4-fluoro-3-(trifluoromethyl)phenyl)-6-(2-methoxy-5-(3a,5,6,6a-tetrahydro-4H-pyrrolo[3,4-d]isoxazol-3-yl)benzamido)benzo[d][1,3]dioxole-5-carboxamide]
EC50: 13 nM

O=C(Nc1cc2c(cc1C(=O)Nc1ccc(F)c(C(F)(F)F)c1)OC(F)(F)O2)c1csc(C2=NOC3COCC23)n1 (single isomer, unassigned) [Example 94, N-(2,2-difluoro-6-((4-fluoro-3-(trifluoromethyl)phenyl)carbamoyl)benzo[d][1,3]dioxol-5-yl)-2-(3a,4,6,6a-tetrahydrofuro[3,4-d]isoxazol-3-yl)thiazole-4-carboxamide]
EC50: 1400 nM

COc1ccc(C2=NOC(CO)C2)cc1C(=O)Nc1cc2c(cc1C(=O)Nc1ccc(F)c(C(F)(F)F)c1)OC(F)(F)O2 (single isomer, unassigned) [Example 72, 2,2-difluoro-N-(4-fluoro-3-(trifluoromethyl)phenyl)-6-(5-(5-(hydroxymethyl)-4,5-dihydroisoxazol-3-yl)-2-methoxybenzamido) benzo[d][1,3]dioxole-5-carboxamide]
EC50: 65 nM
